Assay results taken from patent publication US20050014706A1, “Method of treating tuberculosis” (priority 2003, published 2005).
Converted amounts (≈) assume the structure as drawn. Read-outs that look alike come from different tables or passages of the source.

What was measured:
M. tuberculosis H37Rv [1] = experiment: MIC vs. M. tuberculosis H37Rv, microplate Alamar Blue assay (MABA); type: cell-based; conditions: for enhancement in potency of macrolide over counterpart ketolide: vs. telithromycin, RU004, RU56006 respectively; for MIC / activity vs. M. tuberculosis in words: in vitro
tubercle bacillus [2] = conditions: literature; cited from earlier work
tubercle bacillus [3] = conditions: literature (Luna-Herrera 1995; Truffot-Pernot 1995); cited from earlier work
VERO cells [4] = experiment: Cytotoxicity against VERO cells (MTS, 72 hours); conditions: for IC50: read-out: Vero IC50 (toxicity); for toxicity / cytotoxicity in words: in vitro study
M. tuberculosis H37Rv [5] = conditions: positive quality control, MABA; cited from earlier work
[6] = tested on: J774.1 macrophage cell line; experiment: Cytotoxicity against J774.1 macrophage cell line; type: cell-based, murine; conditions: for IC50: Mus musculus, J774.1
M. tuberculosis Erdman = type: in vivo, BALB/c mice; conditions: for activity against M. tuberculosis in the acute phase of infection: 100 and 200 mg/kg qd (RU60887 100 mg/kg only)
[7] = Overt toxicity in mice, escalating 5-day cycles; type: in vivo, Balb/C mice; conditions: once daily 5-day cycles, sequentially 200, 300, 400, 500 mg/kg
Description: Prior to assessing in vivo efficacy, RU66252 and RU69874 were administered to pairs of female Balb/C mice once daily for 5-day cycles, and observed for overt signs of toxicity (e.g., weight loss, ruffled fur, and huddling), after which the mice were rested for 1 or 2 days. Then the dosage was increased for another 5-day cycle. Overall, the same mice received sequentially for 5 days: 200, 300, 400, and 500 mg/kg.

VERO cells [8] = tested on: VERO cells
M. tuberculosis = experiment: Activity against M. tuberculosis in mice (follow-up, dose response); type: in vivo
[9] = Mycobacterium tuberculosis, H37RV, read-out: minimum inhibitory concentration (MIC) against M. tuberculosis
[10] = Mycobacterium tuberculosis, H37RV, Table 1a, 11,12-carbamate derivatives, read-out: Anti-TB Activity MIC
[11] = Table 1a, J774 cells, read-out: J774 IC50 (toxicity)

| Compound | enhancement in potency of macrolide over counterpart ketolide (M. tuberculosis H37Rv [1]) | MIC (M. tuberculosis H37Rv [1]; [9]) | MIC / activity vs. M. tuberculosis in words (M. tuberculosis H37Rv [1]) | activity against M. tuberculosis in the acute phase of infection (M. tuberculosis Erdman) | IC50 (VERO cells [4]; Chlorocebus sabaeus, Vero) | toxicity / cytotoxicity in words (VERO cells [4]) | MIC (M. tuberculosis H37Rv [1]; [10]) | IC50 [6, 11] | overt signs of toxicity (weight loss, ruffled fur, huddling) [7] | other results |
| --- | --- | --- | --- | --- | --- | --- | --- | --- | --- | --- |
| CC[C@H]1OC(=O)[C@H](C)[C@@H](O[C@H]2C[C@@](C)(OC)[C@@H](O)[C@H](C)O2)[C@H](C)[C@@H](O[C@@H]2O[C@H](C)C[C@H](N(C)C)[C@H]2O)[C@](C)(OC)C[C@@H](C)C(=O)[C@H](C)[C@@H](O)[C@]1(C)O [Clarithromycin, reference compound] | 16 fold |  |  |  |  |  |  |  |  | MIC (M. tuberculosis H37Rv [1]; Table 2a, 11,12-diols, read-out: Anti-TB Activity MIC): 8 µM (≈ 5.98 µg/mL); MIC against the tubercle bacillus (tubercle bacillus [2]): 4 to 64 mg/L; activity in mouse models (tubercle bacillus [3]): marginal and nil; IC50 (VERO cells [4]; Table 2a, Vero cells): 41 µM |
| NNC(=O)c1ccncc1 [Isoniazid] |  |  |  |  |  |  |  |  |  | expected MIC range of quality control compound (M. tuberculosis H37Rv [5]): 0.025 to 0.1 mg/L |
| CCCCCCCCCCN1CCCC(O/N=C2\[C@H](C)C[C@@](C)(OC)[C@H](O[C@@H]3O[C@H](C)C[C@H](N(C)C)[C@H]3O)[C@@H](C)C(=O)[C@@H](C)C(=O)O[C@H](CC)[C@@](C)(O)[C@H](O)[C@H]2C)C1 (stereo partly shown) [RU60887] |  | 0.12 µM (≈ 0.0991 µg/mL) | very low | less activity | 27.6 µM | comparable to clarithromycin |  |  |  | MIC (M. tuberculosis H37Rv [1]; Mycobacterium tuberculosis, H37RV, Table 2a, 11,12-diols, read-out: Anti-TB Activity MIC): 0.125 µM (≈ 0.103 µg/mL); IC50 ([6]; Table 2a, J774 cells, read-out: J774 IC50 (toxicity)): 4.7 µM |
| CC[C@H]1OC(=O)[C@H](C)[C@@H](O[C@H]2C[C@@](C)(OC)[C@@H](O)[C@H](C)O2)[C@H](C)[C@@H](O[C@@H]2O[C@H](C)C[C@H](N(C)C)[C@H]2O)[C@](C)(OC)C[C@@H](C)C(=O)[C@H](C)[C@H]2N(CCCCn3cnc(-c4cccnc4)c3)C(=O)O[C@]12C [RU69874] | 126 fold | 0.38 µM (≈ 0.369 µg/mL) | very low | less activity | 27 µM | comparable to clarithromycin | 0.38 µM (≈ 0.369 µg/mL) | 58.6 µM | No signs of overt toxicity | selectivity index (SI) ([6]; J774 cells): 154; IC50 ([6]; based on J774 cells, read-out: toxicity): 59 µM |
| CC[C@H]1OC(=O)[C@@](C)(F)C(=O)[C@H](C)[C@@H](O[C@@H]2O[C@H](C)C[C@H](N(C)C)[C@H]2O)[C@](C)(OCC#Cc2cc(-c3cnc4ccccc4c3)no2)C[C@@H](C)C(=O)[C@H](C)[C@H]2NC(=O)O[C@@]21C [Compound A323348] |  | 0.38 µM (≈ 0.323 µg/mL) | very low |  | 24.3 µM |  | 0.38 µM (≈ 0.323 µg/mL) | 15.3 µM |  | toxicity / cytotoxicity in words (VERO cells [8]): comparable to clarithromycin |
| CC[C@H]1OC(=O)[C@H](C)C(OC2CC(C)(OC)[C@@H](O)[C@H](C)O2)[C@H](C)[C@@H](O[C@@H]2O[C@H](C)C[C@H](N(C)C)[C@H]2O)[C@](C)(OC)C[C@@H](C)C(=O)[C@H](C)[C@H]2N(NCCCc3ccnc4ccccc34)C(=O)O[C@]12C (stereo partly shown) [RU66252] | 16 fold |  | very low | dose-dependent activity |  | comparable to clarithromycin |  |  | No signs of overt toxicity | MIC (M. tuberculosis H37Rv [1]; Table 1a, 11,12-carbamate derivatives, read-out: Anti-TB Activity MIC): 0.25 µM (≈ 0.239 µg/mL); MIC (M. tuberculosis H37Rv [1]; Table 3, parallel-synthesis carbazate library products): 9 µM (≈ 8.61 µg/mL); MIC vs. M. tuberculosis (M. tuberculosis H37Rv [1]; follow-up assays): about 9 μM; MIC (M. tuberculosis H37Rv [1]; read-out: minimum inhibitory concentration (MIC) against M. tuberculosis): 0.25 µM (≈ 0.239 µg/mL); colonies from treated mouse lung homogenates (M. tuberculosis Erdman; 10^−2 dilution plates): no colonies; M. tuberculosis inhibition in mice (M. tuberculosis; 150 mg/kg and 200 mg/kg): significant; dose response in mice (M. tuberculosis; between 50 and 200 mg/kg): shows a dose response; activity against M. tuberculosis in mice (M. tuberculosis; mice): active |
